{"source": "ChEMBL document CHEMBL5653631", "about": "“A Potent and Selective ULK1 Inhibitor Suppresses Autophagy and Sensitizes Cancer Cells to Nutrient Stress” (iScience, 2018)", "key": {"[1]": {"target": "T1, Serine/threonine-protein kinase Nek9 (Homo sapiens) (UniProt Q8TD19)", "T1 sequence (whole entry)": "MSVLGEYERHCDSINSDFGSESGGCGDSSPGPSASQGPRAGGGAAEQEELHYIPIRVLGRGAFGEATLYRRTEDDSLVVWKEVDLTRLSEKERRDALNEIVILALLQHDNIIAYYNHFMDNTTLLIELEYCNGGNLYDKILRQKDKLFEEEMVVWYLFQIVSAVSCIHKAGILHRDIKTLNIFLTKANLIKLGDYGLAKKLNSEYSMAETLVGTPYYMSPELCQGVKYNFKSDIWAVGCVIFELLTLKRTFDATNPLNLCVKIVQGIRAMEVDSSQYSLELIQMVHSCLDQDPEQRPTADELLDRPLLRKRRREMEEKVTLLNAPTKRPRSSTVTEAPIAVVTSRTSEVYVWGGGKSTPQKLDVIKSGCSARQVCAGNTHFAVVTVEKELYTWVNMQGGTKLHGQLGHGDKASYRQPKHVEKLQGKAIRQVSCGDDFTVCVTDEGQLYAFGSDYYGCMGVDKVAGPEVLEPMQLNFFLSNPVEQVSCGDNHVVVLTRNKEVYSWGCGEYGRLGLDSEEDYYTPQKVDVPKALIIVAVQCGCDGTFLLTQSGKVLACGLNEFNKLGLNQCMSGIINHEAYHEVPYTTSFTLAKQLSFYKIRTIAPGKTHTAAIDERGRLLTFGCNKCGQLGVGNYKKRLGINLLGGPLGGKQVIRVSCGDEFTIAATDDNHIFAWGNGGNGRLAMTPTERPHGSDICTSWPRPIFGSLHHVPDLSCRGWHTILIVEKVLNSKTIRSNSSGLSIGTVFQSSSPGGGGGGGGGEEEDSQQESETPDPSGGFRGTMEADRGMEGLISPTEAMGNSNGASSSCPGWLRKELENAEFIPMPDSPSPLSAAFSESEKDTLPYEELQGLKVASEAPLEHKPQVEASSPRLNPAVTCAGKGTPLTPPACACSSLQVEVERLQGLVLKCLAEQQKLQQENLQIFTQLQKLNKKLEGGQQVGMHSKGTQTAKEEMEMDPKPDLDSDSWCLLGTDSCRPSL", "experiment": "Inhibition of human recombinant NEK9 at 500 nM in presence of ATP by radiometric assay relative to control"}, "[2]": {"target": "T2, Receptor-interacting serine/threonine-protein kinase 1 (Homo sapiens) (UniProt Q13546)", "T2 sequence (whole entry)": "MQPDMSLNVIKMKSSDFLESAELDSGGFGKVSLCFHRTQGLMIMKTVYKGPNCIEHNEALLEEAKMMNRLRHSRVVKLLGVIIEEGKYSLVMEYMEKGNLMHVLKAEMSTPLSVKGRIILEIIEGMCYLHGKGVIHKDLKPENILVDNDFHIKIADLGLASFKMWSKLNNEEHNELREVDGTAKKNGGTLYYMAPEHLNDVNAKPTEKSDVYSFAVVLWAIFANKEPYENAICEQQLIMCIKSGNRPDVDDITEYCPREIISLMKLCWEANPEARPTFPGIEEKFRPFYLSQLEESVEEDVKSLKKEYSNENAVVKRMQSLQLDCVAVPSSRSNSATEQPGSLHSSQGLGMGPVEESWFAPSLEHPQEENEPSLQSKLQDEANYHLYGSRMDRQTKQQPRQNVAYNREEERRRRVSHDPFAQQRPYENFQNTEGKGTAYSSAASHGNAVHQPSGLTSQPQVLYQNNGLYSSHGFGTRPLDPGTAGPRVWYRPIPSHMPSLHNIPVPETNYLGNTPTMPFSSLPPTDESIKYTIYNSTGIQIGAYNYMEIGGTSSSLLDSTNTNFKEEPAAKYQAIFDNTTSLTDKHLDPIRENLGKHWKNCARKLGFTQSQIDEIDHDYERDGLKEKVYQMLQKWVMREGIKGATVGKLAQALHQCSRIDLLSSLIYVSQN", "experiment": "Inhibition of human recombinant RIPK1 at 500 nM in presence of ATP by radiometric assay relative to control"}, "[3]": {"target": "Dual specificity mitogen-activated protein kinase kinase 2 (Homo sapiens) (UniProt P36507)", "sequence (P36507 whole entry)": "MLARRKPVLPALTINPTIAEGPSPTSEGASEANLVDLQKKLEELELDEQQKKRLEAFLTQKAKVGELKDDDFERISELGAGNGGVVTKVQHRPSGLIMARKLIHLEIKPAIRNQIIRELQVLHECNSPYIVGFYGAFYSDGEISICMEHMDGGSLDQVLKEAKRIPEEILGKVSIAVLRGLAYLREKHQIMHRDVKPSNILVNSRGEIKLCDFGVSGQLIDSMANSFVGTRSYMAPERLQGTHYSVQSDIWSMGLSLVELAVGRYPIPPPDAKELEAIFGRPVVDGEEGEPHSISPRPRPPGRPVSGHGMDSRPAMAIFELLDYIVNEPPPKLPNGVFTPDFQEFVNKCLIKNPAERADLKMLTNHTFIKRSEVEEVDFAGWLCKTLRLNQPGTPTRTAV", "experiment": "Inhibition of human recombinant MAP2K2 at 500 nM related to control ULK1"}, "[4]": {"target": "Receptor tyrosine-protein kinase erbB-4 (Homo sapiens) (UniProt Q15303)", "sequence (Q15303 whole entry)": "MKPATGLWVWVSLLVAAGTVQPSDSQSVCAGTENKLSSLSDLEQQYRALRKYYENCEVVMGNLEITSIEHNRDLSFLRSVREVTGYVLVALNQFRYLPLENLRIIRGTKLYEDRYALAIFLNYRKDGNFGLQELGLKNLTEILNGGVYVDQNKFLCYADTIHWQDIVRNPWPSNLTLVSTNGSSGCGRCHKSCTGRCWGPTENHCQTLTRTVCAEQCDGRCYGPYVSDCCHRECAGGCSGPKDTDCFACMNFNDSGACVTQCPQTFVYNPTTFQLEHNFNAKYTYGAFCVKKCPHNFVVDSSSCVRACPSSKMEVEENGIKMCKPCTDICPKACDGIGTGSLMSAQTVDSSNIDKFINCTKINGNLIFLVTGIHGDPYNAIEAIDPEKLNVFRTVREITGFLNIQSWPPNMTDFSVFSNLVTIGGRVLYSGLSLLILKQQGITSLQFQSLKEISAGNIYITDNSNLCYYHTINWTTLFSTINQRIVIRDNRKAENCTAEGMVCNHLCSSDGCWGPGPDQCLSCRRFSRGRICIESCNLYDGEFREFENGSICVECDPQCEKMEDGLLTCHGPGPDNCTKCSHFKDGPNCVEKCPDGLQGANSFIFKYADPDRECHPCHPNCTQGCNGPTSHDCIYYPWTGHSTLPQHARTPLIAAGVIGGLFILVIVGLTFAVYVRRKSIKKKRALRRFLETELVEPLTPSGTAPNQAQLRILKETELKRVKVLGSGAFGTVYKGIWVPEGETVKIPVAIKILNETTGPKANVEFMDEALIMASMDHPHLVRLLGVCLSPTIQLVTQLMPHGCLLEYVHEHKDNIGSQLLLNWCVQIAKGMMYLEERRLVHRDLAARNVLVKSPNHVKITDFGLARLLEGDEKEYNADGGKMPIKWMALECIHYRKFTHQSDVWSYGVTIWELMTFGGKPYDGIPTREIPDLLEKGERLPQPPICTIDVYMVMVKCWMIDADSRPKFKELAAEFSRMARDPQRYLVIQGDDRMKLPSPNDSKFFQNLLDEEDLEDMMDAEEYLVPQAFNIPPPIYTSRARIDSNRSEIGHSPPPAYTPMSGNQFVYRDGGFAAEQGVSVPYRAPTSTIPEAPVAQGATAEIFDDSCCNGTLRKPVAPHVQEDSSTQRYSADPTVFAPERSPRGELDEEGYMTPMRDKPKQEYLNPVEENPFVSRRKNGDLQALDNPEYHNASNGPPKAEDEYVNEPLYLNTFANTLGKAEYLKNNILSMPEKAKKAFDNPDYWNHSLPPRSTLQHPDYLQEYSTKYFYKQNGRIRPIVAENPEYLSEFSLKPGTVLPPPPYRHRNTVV", "experiment": "Inhibition of human recombinant ErbB4 at 15 nM in presence of ATP by radiometric assay relative to control"}, "[5]": {"target": "T3, Serine/threonine-protein kinase ULK3 (Homo sapiens) (UniProt Q6PHR2)", "T3 sequence (whole entry)": "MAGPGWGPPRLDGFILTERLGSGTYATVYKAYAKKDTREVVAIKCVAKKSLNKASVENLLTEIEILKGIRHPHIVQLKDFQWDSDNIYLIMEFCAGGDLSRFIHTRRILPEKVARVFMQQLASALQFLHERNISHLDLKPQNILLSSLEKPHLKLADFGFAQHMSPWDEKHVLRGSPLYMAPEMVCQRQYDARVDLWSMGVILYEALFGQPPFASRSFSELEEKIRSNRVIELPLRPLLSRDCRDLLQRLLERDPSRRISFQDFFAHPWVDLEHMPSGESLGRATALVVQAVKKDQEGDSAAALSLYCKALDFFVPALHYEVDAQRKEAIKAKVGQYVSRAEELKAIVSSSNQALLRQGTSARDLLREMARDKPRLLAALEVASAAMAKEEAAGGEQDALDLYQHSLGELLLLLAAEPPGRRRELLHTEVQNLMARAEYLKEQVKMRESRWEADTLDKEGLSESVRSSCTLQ", "experiment": "Inhibition of human recombinant ULK3 at 15 nM in presence of ATP by radiometric assay relative to control"}, "[6]": {"target": "Activated CDC42 kinase 1 (Homo sapiens) (UniProt Q07912)", "sequence (Q07912 whole entry, looked up)": "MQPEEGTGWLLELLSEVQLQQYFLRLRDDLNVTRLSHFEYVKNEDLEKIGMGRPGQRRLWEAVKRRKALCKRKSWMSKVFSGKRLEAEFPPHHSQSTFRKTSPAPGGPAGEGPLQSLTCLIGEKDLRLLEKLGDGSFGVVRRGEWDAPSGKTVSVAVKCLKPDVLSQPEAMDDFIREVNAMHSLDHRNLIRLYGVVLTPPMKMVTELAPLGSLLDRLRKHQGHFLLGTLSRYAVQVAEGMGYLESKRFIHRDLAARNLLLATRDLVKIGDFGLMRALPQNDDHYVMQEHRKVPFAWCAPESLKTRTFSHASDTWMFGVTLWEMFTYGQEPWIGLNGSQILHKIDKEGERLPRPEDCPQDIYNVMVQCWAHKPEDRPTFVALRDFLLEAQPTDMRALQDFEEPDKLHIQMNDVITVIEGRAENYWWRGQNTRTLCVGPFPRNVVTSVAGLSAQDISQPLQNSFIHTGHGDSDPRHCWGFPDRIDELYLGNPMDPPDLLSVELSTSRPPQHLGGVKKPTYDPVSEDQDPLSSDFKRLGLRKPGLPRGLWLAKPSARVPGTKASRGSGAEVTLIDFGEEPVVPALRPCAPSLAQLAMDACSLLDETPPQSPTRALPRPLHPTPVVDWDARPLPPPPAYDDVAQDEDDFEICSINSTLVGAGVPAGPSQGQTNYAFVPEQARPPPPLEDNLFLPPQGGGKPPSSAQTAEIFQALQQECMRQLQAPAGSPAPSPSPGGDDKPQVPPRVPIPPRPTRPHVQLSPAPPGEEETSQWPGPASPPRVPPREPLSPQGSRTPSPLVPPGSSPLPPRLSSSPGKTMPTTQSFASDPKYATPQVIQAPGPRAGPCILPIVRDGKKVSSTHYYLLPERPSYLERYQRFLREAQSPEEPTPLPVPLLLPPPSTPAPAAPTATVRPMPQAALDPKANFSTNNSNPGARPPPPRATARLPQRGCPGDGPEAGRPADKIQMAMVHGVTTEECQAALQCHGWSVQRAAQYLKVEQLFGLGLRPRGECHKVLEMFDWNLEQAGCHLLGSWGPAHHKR", "experiment": "Inhibition of human recombinant ACK at 15 nM related to control ULK1"}, "[7]": {"target": "Ephrin type-A receptor 5 (Homo sapiens) (UniProt P54756)", "sequence (P54756 whole entry)": "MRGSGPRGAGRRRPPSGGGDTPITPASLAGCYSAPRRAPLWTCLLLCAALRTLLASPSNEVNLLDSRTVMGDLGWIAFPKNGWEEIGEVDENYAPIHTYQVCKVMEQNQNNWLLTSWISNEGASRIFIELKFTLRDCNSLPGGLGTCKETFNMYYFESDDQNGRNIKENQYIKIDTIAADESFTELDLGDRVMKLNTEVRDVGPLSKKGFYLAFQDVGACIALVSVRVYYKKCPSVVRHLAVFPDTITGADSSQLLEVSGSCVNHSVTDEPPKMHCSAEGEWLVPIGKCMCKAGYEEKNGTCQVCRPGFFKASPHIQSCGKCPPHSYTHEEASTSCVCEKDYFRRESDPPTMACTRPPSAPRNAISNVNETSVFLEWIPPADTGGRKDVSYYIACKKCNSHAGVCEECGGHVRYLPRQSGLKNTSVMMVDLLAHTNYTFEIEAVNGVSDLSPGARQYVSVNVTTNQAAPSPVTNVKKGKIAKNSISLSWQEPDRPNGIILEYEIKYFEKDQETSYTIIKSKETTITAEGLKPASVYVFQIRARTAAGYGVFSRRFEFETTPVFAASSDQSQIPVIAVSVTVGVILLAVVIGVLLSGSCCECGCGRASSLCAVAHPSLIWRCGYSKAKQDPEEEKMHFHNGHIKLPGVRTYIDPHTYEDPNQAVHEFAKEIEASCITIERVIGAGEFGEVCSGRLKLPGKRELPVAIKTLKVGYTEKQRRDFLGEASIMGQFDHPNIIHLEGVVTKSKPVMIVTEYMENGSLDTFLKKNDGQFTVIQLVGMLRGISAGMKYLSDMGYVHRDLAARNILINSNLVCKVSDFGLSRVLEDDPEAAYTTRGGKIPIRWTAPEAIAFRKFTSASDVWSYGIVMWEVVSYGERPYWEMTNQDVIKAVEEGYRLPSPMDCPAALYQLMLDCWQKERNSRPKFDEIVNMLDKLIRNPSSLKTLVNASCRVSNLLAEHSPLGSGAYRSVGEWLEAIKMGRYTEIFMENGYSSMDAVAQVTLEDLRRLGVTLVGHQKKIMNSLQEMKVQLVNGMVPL", "experiment": "Inhibition of human recombinant EphA5 at 40 nM in presence of ATP by radiometric assay relative to control"}, "[8]": {"target": "Tyrosine-protein kinase Lyn (Homo sapiens) (UniProt P07948)", "sequence (P07948 2-512 limits assumed)": "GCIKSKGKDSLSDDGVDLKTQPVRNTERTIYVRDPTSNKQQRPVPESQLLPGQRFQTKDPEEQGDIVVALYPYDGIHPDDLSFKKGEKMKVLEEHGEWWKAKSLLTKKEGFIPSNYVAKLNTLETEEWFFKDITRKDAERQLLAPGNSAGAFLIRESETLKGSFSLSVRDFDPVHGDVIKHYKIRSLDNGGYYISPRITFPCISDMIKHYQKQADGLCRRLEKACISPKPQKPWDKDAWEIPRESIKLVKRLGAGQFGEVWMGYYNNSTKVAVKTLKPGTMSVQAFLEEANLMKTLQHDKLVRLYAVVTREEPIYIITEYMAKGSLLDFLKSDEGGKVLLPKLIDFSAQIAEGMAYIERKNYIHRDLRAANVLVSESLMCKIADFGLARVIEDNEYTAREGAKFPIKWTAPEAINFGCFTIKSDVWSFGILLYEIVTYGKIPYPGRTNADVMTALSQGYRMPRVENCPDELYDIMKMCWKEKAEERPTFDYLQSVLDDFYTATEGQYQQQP", "experiment": "Inhibition of human recombinant LYN at 40 nM in presence of ATP by radiometric assay relative to control"}, "[9]": {"target": "Serine/threonine-protein kinase Chk2 (Homo sapiens) (UniProt O96017)", "sequence (O96017 whole entry)": "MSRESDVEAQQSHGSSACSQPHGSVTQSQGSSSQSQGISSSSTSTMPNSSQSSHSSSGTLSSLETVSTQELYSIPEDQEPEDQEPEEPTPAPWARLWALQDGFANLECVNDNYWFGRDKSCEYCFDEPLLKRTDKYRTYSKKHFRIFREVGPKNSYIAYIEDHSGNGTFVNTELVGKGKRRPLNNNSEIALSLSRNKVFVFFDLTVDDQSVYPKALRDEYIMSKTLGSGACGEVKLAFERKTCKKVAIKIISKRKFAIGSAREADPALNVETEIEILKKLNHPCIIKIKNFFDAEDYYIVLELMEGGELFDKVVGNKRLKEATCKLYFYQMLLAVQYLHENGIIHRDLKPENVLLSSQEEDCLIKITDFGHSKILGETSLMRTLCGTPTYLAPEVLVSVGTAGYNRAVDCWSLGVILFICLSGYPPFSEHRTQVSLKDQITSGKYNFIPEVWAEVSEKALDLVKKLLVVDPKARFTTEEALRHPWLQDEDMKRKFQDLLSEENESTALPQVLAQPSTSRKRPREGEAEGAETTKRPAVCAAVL", "experiment": "Inhibition of human recombinant CHK2 at 40 nM related to control ULK1"}}}
{"molecule": "CNC(=O)c1ccccc1Oc1nc(Nc2cc(OC)c(OC)c(OC)c2)ncc1Br", "values": [{"measurement": "inhibition", "setting": "[1]", "value": 0, "unit": "%"}, {"measurement": "inhibition", "setting": "[2]", "value": 7, "unit": "%"}, {"measurement": "fold change (FC)", "setting": "[3]", "value": 0}]}
{"molecule": "CC(C)[C@H](NC(=O)c1cc(-c2cnn3cc(-c4ccc(OCCN5CCCCC5)cc4)cnc23)cs1)C(F)(F)F", "values": [{"measurement": "inhibition", "setting": "[4]", "value": 0, "unit": "%"}, {"measurement": "inhibition", "setting": "[5]", "value": 40, "unit": "%"}, {"measurement": "fold change (FC)", "setting": "[6]", "value": 0}]}
{"molecule": "O=C(N[C@@H](C1CC1)C(F)(F)F)c1cc(-c2cnn3cc(-c4ccc(F)cc4)cnc23)cs1", "values": [{"measurement": "inhibition", "setting": "[7]", "value": 0, "unit": "%"}, {"measurement": "inhibition", "setting": "[8]", "value": 18, "unit": "%"}, {"measurement": "fold change (FC)", "setting": "[9]", "value": 0}]}
